Tested on: Arabidopsis transcriptome
Assay: cDNA microarray analysis of early transcriptomic changes in Arabidopsis seedlings
Type: in vivo, Arabidopsis thaliana
Procedure: Arabidopsis thaliana Columbia (Col-0) was the accession used for all the experiments. Seeds were surface sterilised by subsequent treatment with 50% v/v Et-OH and 3% bleach solution in agitation for 5 and 10 min, respectively. Seeds were then washed three times with distilled water and stratified for 3 days at 4° C. in the dark. For qPCR analysis and microarray experiments, seeds were sown on square petri dishes ([…]) containing half strength Murashige and Skoog (MS) salt, 2.5 mM MES, 1% w/v sucrose and 0.8% w/v plant agar. The experiments were performed using 14-day old seedlings grown vertically in a controlled growth cabinet with short day conditions ( 8/16 h light/dark; 100 μmol photons m^−2 s^−1) at 22±0.5° C. Treatments were performed by applying 40-50 μl of fresh-prepared and filtered solution per seedling.
For RNA extraction, 14-day old leaves from ten independent plants were collected at the indicated time point after treatments, pooled and frozen in liquid nitrogen. Total RNA was extracted from 100 mg of ground-frozen samples using the Maxwell® LEV Plant RNA Kit (Promega, Madison, WI, USA) and the RNA integrity was determined through NanoDrop 2000 UV-Vis Spectrophotometer (Thermo Scientific, Loughborough, UK). First-strand cDNA was synthesized by using SOLIScript® RT cDNA synthesis MIX (Solis Biodyne, Tartu, Estonia) and qPCRs were performed using SYBR® Selected MasterMix 2× (Applied Biosystems, Thermo Fisher Scientific, Waltham, USA), following the manufacturers' protocols. The cycling conditions consisted of an initial 7 min at 95° C., followed by 40 two-step cycles at 95° C. for 5 s and at 60° C. for 30 s. Melting curve analysis was performed after cycle completion to validate amplicon identity. Relative expression levels were calculated following the standard curve-based method (Larionov et al. A standard curve based method for relative real time PCR data processing, BMC Bioinformatics. 2005, vol. 6, 1) by using ACTIN as reference. Gene-specific primers used in this work are indicated below.
RNA sample preparation for microarray hybridization was carried out as described in the Applied Biosystems™ GeneChip™ Whole Transcript (WT) PLUS Reagent Kit User Guide (Thermo Fisher Scientific, Waltham, MA, USA). Briefly, 200 ng of total RNA was used to generate double-stranded cDNA. Twelve μg of subsequently synthesized cRNA were purified and reverse transcribed into single-stranded (ss)cDNA, where unnatural dUTP residues were incorporated. Purified and labelled sscDNAs were hybridised to Arabidopsis Gene 1.0 ST arrays (Affymetrix, Santa Clara, CA, USA) and the fluorescent signals were measured with an Applied Biosystems™ GeneChip Scanner 3000 7 G System. Sample processing was performed at a Genomics Core Facility, “KFB—Center of Excellence for Fluorescent Bioanalytics” (Regensburg, Germany).
Normalised probe set signals in log2 scale were calculated by using the RMA algorithm. Average linkage hierarchical clusters of differentially expressed genes were generated by using Cluster 3.0 and visualized by java TreeView.
In Arabidopsis, the DAMPs-dependent elicitation of PTI is known to be accompanied by a deep immune gene transcriptional reprogramming. […] The transcriptomic analysis was carried out by using Arabidopsis 1.0 ST microarray chip (Affymetrix, Santa Clara, CA, USA) and Differentially Expressed Genes (DEGs) were selected using two criteria: log2 expression ratios ≥1.5-fold or […] and Student's t-test p-value≤0.05.

[1] = 100 μM, 1 h, 14-day old Arabidopsis plants
[2] = 100 μM, 1 h, Col-0 plants, vs control

## OC[C@H]1O[C@@H](O[C@H]2[C@H](O)[C@@H](O)[C@H](O)O[C@@H]2CO)[C@H](O)[C@@H](O)[C@@H]1O [Cellobiose, β-D-glucopyranosyl(1→4)D-glucopyranose]
[1]
  changes in expression, number of differentially expressed genes: 440 genes
  downregulated genes: 94 genes
  upregulated genes: 346 genes
[2]
  AT1G02360 putative chitinase gene expression: 1.03 fold change
  AT1G02920 glutathione S-transferase F7 gene expression: 1.10 fold change
  AT1G02930 glutathione S-transferase F6 gene expression: 1.18 fold change
  AT1G03220 aspartyl protease-like protein gene expression: 1.08 fold change
  AT1G07400 class I heat shock protein gene expression: 2.58 fold change
  AT1G11100 SNF2, helicase and zinc-finger domain-containing protein gene expression: 1.70 fold change
  AT1G13520 hypothetical protein gene expression: 2.05 fold change
  AT1G14540 peroxidase 4 gene expression: 1.22 fold change
  AT1G16110 wall associated kinase-like 6 gene expression: 1.46 fold change
  AT1G18382 gene expression: 1.39 fold change
  AT1G18570 myb domain protein 51 gene expression: 1.46 fold change
  AT1G19020 hypothetical protein gene expression: 1.68 fold change
  AT1G24145 hypothetical protein gene expression: 1.15 fold change
  AT1G27020 hypothetical protein gene expression: 1.06 fold change
  AT1G30700 FAD-binding Berberine family protein gene expression: 1.73 fold change
  AT1G30755 hypothetical protein gene expression: 1.08 fold change
  AT1G36622 hypothetical protein gene expression: 1.62 fold change
  AT1G36640 hypothetical protein gene expression: 1.27 fold change
  AT1G49000 hypothetical protein gene expression: 1.67 fold change
  AT1G51790 leucine-rich repeat protein kinase-like protein gene expression: 1.99 fold change
  AT1G51800 putative leucine-rich repeat protein kinase gene expression: 2.44 fold change
  AT1G51820 SIF2 gene expression: 6.99 fold change
  AT1G51850 Leucine-rich repeat protein kinase family protein gene expression: 4.14 fold change
  AT1G51890 probable LRR receptor-like protein kinase gene expression: 1.91 fold change
  AT1G51920 hypothetical protein gene expression: 1.55 fold change
  AT1G52200 PLAC8 family protein gene expression: 1.57 fold change
  AT1G53625 hypothetical protein gene expression: 1.55 fold change
  AT1G54050 CIII heat shock protein 17.4 gene expression: 1.36 fold change
  AT1G55450 S-adenosyl-L-methionine-dependent methyltransferases superfamily protein gene expression: 1.19 fold change
  AT1G59865 hypothetical protein gene expression: 2.57 fold change
  AT1G61360 G-type lectin S-receptor-like serine/threonine-protein kinase gene expression: 1.18 fold change
  AT1G61560 MLO-like protein 6 gene expression: 1.14 fold change
  AT1G64400 long-chain acyl-CoA synthetase gene expression: 1.18 fold change
  AT1G65845 hypothetical protein gene expression: 1.99 fold change
  AT1G74310 chaperone protein ClpB1 gene expression: 2.87 fold change
  AT1G79680 wall-associated receptor kinase-like 10 gene expression: 1.62 fold change
  AT2G02010 glutamate decarboxylase 4 gene expression: 1.11 fold change
  AT2G15220 basic secretory protein family protein gene expression: 1.08 fold change
  AT2G17740 cysteine/histidine-rich C1 domain-containing protein gene expression: 1.04 fold change
  AT2G19190 FLG22-induced receptor-like kinase 1 gene expression: 1.38 fold change
  AT2G22880 VQ motif-containing protein gene expression: 1.35 fold change
  AT2G26150 heat stress transcription factor A-2 gene expression: 2.19 fold change
  AT2G26560 phospholipase A 2A gene expression: 2.02 fold change
  AT2G27660 cysteine/histidine-rich C1 domain-containing protein gene expression: 1.63 fold change
  AT2G29500 HSP20 family protein gene expression: 3.11 fold change
  AT2G36220 hypothetical protein gene expression: 1.44 fold change
  AT2G36690 2-oxoglutarate (2OG) and Fe(II)-dependent oxygenase superfamily protein gene expression: 1.99 fold change
  AT2G38870 PR-6 proteinase inhibitor family protein gene expression: 1.27 fold change
  AT2G39200 protein MILDEW RESISTANCE LOCUS O 12 gene expression: 2.09 fold change
  AT2G39210 major facilitator protein gene expression: 1.67 fold change
  AT2G39518 hypothetical protein gene expression: 2.22 fold change
  AT2G43620 chitinase family protein gene expression: 2.15 fold change
  AT2G44490 PEN2 gene expression: 1.20 fold change
  AT2G46240 BCL-2-associated athanogene 6 gene expression: 2.00 fold change
  AT3G08970 J domain protein ATERDJ3A gene expression: 2.46 fold change
  AT3G09350 protein Fes1A gene expression: 2.18 fold change
  AT3G12580 heat shock protein 70-4 gene expression: 3.24 fold change
  AT3G12910 no apical meristem domain-containing transcriptional regulator gene expression: 1.36 fold change
  AT3G14200 chaperone DnaJ-domain containing protein gene expression: 2.55 fold change
  AT3G15500 ATAF-like NAC-domain transcription factor gene expression: 1.20 fold change
  AT3G16030 G-type lectin S-receptor-like serine/threonine-protein kinase CES101 gene expression: 1.47 fold change
  AT3G22060 Receptor-like protein kinase-related family protein gene expression: 1.31 fold change
  AT3G24500 multiprotein-bridging factor 1c gene expression: 1.75 fold change
  AT3G26210 cytochrome P450 71B23 gene expression: 1.35 fold change
  AT3G46280 protein kinase-like protein gene expression: 4.51 fold change
  AT3G51910 heat stress transcription factor A-7a gene expression: 1.35 fold change
  AT3G54420 chitinase class IV gene expression: 1.74 fold change
  AT4G01750 rhamnogalacturonan xylosyltransferase 2 gene expression: 2.59 fold change
  AT4G11890 receptor-like cytosolic kinase ARCK1 gene expression: 1.75 fold change
  AT4G12400 carboxylate clamp-tetratricopeptide repeat protein gene expression: 3.23 fold change
  AT4G15233 ABC transporter G family member 42 gene expression: 1.66 fold change
  AT4G21120 amino acid transporter 1 gene expression: 1.07 fold change
  AT4G22470 protease inhibitor/seed storage/lipid transfer protein (LTP) family protein gene expression: 1.77 fold change
  AT4G22710 cytochrome P450, family 706, subfamily A, polypeptide 2 gene expression: 1.15 fold change
  AT4G23220 cysteine-rich receptor-like protein kinase 14 gene expression: 1.69 fold change
  AT4G23280 putative cysteine-rich receptor-like protein kinase 20 gene expression: 1.14 fold change
  AT4G23570 phosphatase SGT1a gene expression: 2.22 fold change
  AT4G25110 metacaspase 2 gene expression: 1.74 fold change
  AT4G26200 1-aminocyclopropane-1-carboxylate synthase 7 gene expression: 2.14 fold change
  AT4G27280 EF-hand, calcium binding motif-containing protein gene expression: 1.33 fold change
  AT4G38550 phospholipase like protein (PEARLI 4) family gene expression: 1.60 fold change
  AT5G05300 hypothetical protein gene expression: 1.78 fold change
  AT5G10695 hypothetical protein gene expression: 2.27 fold change
  AT5G14470 GHMP kinase family protein gene expression: 1.21 fold change
  AT5G15870 glycosyl hydrolase family 81 protein gene expression: 1.14 fold change
  AT5G19230 GPI-anchored glycoprotein membrane precursor gene expression: 1.24 fold change
  AT5G35320 hypothetical protein gene expression: 1.02 fold change
  AT5G37600 glutamine synthetase 1; 1 gene expression: 1.56 fold change
  AT5G37670 heat shock protein 15.7 gene expression: 1.04 fold change
  AT5G39020 putative receptor-like protein kinase gene expression: 1.02 fold change
  AT5G39580 peroxidase 62 gene expression: 3.82 fold change
  AT5G44070 glutathione gamma-glutamylcysteinyltransferase 1 gene expression: 1.44 fold change
  AT5G44585 hypothetical protein gene expression: 2.20 fold change
  AT5G44910 Toll-Interleukin-Resistance domain-containing protein gene expression: 1.10 fold change
  AT5G46050 peptide transporter 3 gene expression: 1.74 fold change
  AT5G48530 hypothetical protein gene expression: 2.07 fold change
  AT5G48540 receptor-like protein kinase-related family protein gene expression: 1.85 fold change
  AT5G48570 peptidyl-prolyl cis-trans isomerase FKBP65 gene expression: 3.39 fold change
  AT5G51440 heat shock protein 23.5 gene expression: 1.36 fold change
  AT5G52640 heat shock protein 90.1 gene expression: 3.70 fold change
  AT5G57220 cytochrome P450, family 81, subfamily F, polypeptide 2 gene expression: 1.07 fold change
  AT5G62020 heat stress transcription factor B-2a gene expression: 1.00 fold change
  AT5G64120 peroxidase 71 gene expression: 1.42 fold change
  AT5G67450 zinc-finger protein 1 gene expression: 1.44 fold change
100 μM, 1 h, microarray
  MYB51 (AT1G18570) Expression: 1.46 Fold change (treatment/CTR)
  MYB73 (AT4G37260) Expression: 1.06 Fold change (treatment/CTR)
  NAC047 (AT3G04070) Expression: 1.81 Fold change (treatment/CTR)
  NAC055 (AT3G15500) Expression: 1.20 Fold change (treatment/CTR)
  NAC057 (AT3G17730) Expression: 1.40 Fold change (treatment/CTR)
  NAC058 (AT3G18400) Expression: 1.41 Fold change (treatment/CTR)
  NAC078 (AT5G04410) Expression: 1.31 Fold change (treatment/CTR)
  Target of MYB protein 1 (AT1G76970) Expression: 1.64 Fold change (treatment/CTR)
  WRKY11 (AT4G31550) Expression: 1.95 Fold change (treatment/CTR)
  WRKY15 (AT2G23320) Expression: −1.06 Fold change (treatment/CTR)
  WRKY18 (AT4G31800) Expression: 4.02 Fold change (treatment/CTR)
  WRKY22 (AT4G01250) Expression: 2.34 Fold change (treatment/CTR)
  WRKY30 (AT5G24110) Expression: 1.30 Fold change (treatment/CTR)
  WRKY33 (AT2G38470) Expression: 1.33 Fold change (treatment/CTR)
  WRKY40 (AT1G80840) Expression: −1.05 Fold change (treatment/CTR)
  WRKY61 (AT1G18860) Expression: −1.05 Fold change (treatment/CTR)
  WRKY72 (AT5G15130) Expression: 1.41 Fold change (treatment/CTR)
Vs CTR
  LOX4 (AT1G72520) gene expression, Microarray: 1.68 fold change
  MPK3 (AT3G45640) gene expression, Microarray: 1.22 fold change
  MPK6 (AT2G43790) gene expression, Microarray: −1.06 fold change
  PAD3 (AT3G26830) gene expression, Microarray: −1.04 fold change
  PEN3 (AT1G59870) gene expression, Microarray: 1.55 fold change
  PR1 (AT2G14610) gene expression, Microarray: 1.91 fold change
  WRKY18 (AT4G31800) gene expression, Microarray: 4.02 fold change
  WRKY22 (AT4G01250) gene expression, Microarray: 2.34 fold change
  WRKY33 (AT2G38470) gene expression, Microarray: 1.33 fold change
Vs mock
  IGMT2 (At1G21120) gene expression, Microarray: −1.14 fold change
